# Tested on: mel1300 cells
# Experiment: IFN-γ release, SSX-2 TCR PBL co-cultured with mel1300 cells with DAC
# Assay type: cell-based
# Details: 0.1 μM or 1.0 μWI DAC; PBLs from three donors; FIG. 12
# Procedure: SSX-2 TCR-transduced PBLs from three donors were co-cultured with mel1300 cells without DAC or with 0.1 μM or 1.0 μWI DAC.
smiles,measurement,value
"Nc1ncn([C@H]2C[C@H](O)[C@@H](CO)O2)c(=O)n1 [DAC, 5-aza-2′-deoxycytidine]",effect on recognition of mel1300 cells (IFN-γ),enhances the recognition of mel1300 cells by SSX2-TCR engineered PBL
